Here are results for two compounds from ChEMBL document CHEMBL1137031, “Synthesis and antibacterial activity of C-6 carbamate ketolides, a novel series of orally active ketolide antibiotics” (2004).

Assay [1] deals with Staphylococcus aureus. Put plainly: Minimum inhibitory concentration against Staphylococcus aureus OC4172 in presence of mouse serum. The assay is classed as functional.
The test system of assay [2] is Staphylococcus aureus. Put plainly: Minimum inhibitory concentration against Staphylococcus aureus OC4172. The assay is classed as functional.
Assay [3] concerns Streptococcus pneumoniae. Put plainly: Minimum inhibitory concentration against Streptococcus pneumoniae OC9132.
Assay [4] concerns Streptococcus pneumoniae. Put plainly: Minimum inhibitory concentration against Streptococcus pneumoniae OC4051.
The test system of assay [5] is Mus musculus. Put plainly: Percent survival of Staphylococcus aureus infected murine was tested after peroral injection of 20 mg/kg dose. The assay is classed as functional. The conditions noted are these: route oral.
Assay [6] concerns Mus musculus. As to the kind of experiment: Percent survival of Staphylococcus aureus infected murine was tested after subcutaneous injection of 10 mg/kg dose. The format is functional. Particulars: sc.
The test system of assay [7] is Staphylococcus haemolyticus. Put plainly: Minimum inhibitory concentration against Staphylococcus haemolyticus OC3882.
Another assay deals with Haemophilus influenzae. Put plainly: Minimum inhibitory concentration against Haemophilus influenzae OC4482.
Assay [8] is filed under the species Mus musculus. Put plainly: Effective dose against Staphylococcus aureus infected murine was tested after peroral injection. The format is functional.
In assay [9] the test system is Mus musculus. Put plainly: Effective dose against Staphylococcus aureus infected murine was tested after subcutaneous injection. The format is functional. The conditions noted are these: sc.
The test system of assay [10] is Streptococcus pneumoniae. As to the kind of experiment: Minimum inhibitory concentration against Streptococcus pneumoniae OC4421.
Assay [11] concerns Staphylococcus haemolyticus. As to the kind of experiment: Minimum inhibitory concentration against Staphylococcus haemolyticus OC4545.

≈ marks a conversion by molar mass, not a printed value.

For `CC[C@H]1OC(=O)C(C)C(=O)[C@H](C)[C@@H](O[C@@H]2O[C@H](C)C[C@H](N(C)C)[C@H]2O)[C@](C)(OC(=O)N/C=C/c2ccc(-c3cnccn3)cc2)C[C@@H](C)C(=O)[C@H](C)[C@H]2NC(=O)O[C@@]21C` (some centres undefined), the MIC in the assay on Staphylococcus aureus [1] amounted to 0.25 µg/mL; in the assay with Staphylococcus aureus [2] it was 0.12 µg/mL (≈ 0.146 µM); with Streptococcus pneumoniae [3], 0.03 µg/mL (≈ 0.0365 µM); against Streptococcus pneumoniae [4], 0.06 µg/mL (≈ 0.073 µM); in [7], 0.25 µg/mL (≈ 0.304 µM); against Haemophilus influenzae it was 4 µg/mL (≈ 4.87 µM). The results for the MIC (with Streptococcus pneumoniae [10]; in assay [11]) were 0.12 µg/mL (≈ 0.146 µM) and > 16 µg/mL, respectively. This compound also returned a survival at 20 mg/kg in the assay on Mus musculus [5] of 62%. The compound further displayed a survival at 10 mg/kg in the assay on Mus musculus [6] of 100%. Besides, the ED50 in the assay listed under Mus musculus [8] was 17 mg/kg; with Mus musculus [9] it was 4.8 mg/kg.

For the compound `CC[C@H]1OC(=O)C(C)C(=O)[C@H](C)[C@@H](O[C@@H]2O[C@H](C)C[C@H](N(C)C)[C@H]2O)[C@](C)(OC(=O)N/C=C/c2ccc(-n3cccn3)cc2)C[C@@H](C)C(=O)[C@H](C)[C@H]2NC(=O)O[C@@]21C` (some centres undefined), the MIC in the assay with Staphylococcus aureus [1] is 0.25 µg/mL; against Staphylococcus aureus [2], 0.12 µg/mL (≈ 0.148 µM); with Streptococcus pneumoniae [3] it was 0.03 µg/mL (≈ 0.037 µM); in the assay with Streptococcus pneumoniae [4] it was 0.06 µg/mL (≈ 0.0741 µM); in assay [7], 0.12 µg/mL (≈ 0.148 µM); in the assay with Haemophilus influenzae, 4 µg/mL (≈ 4.94 µM). Besides, the results for the MIC (with Streptococcus pneumoniae [10]; in [11]) were 0.06 µg/mL (≈ 0.0741 µM) and > 16 µg/mL, respectively. The compound also showed a survival at 20 mg/kg in the assay with Mus musculus [5] of 60%. Also, in the assay on Mus musculus [6], the survival at 10 mg/kg was found to be 80%. Besides, the figures for the ED50 in the assay filed under Mus musculus [8] and in the assay on Mus musculus [9] were > 30 mg/kg and 7.1 mg/kg, respectively.
